Test results taken from patent publication US20110118239A1, “PREPARATION AND ENANTIOMERIC SEPARATION OF 7-(3-PYRIDINYL)-1,7-DIAZASPIRO[4.4]NONANE AND NOVEL SALT FORMS OF THE RACEMATE AND ENANTIOMERS” (Targacept, Inc., priority 2008, published 2011).
pEC50, pKi: −log10 of the molar value. Like-named read-outs stand apart in the source and are kept apart here.

Tests used:
[1] = tested on: animal models of depression and anxiety; test: Validated animal models of depression and anxiety (summary statement); details: in vivo
Human Ganglion = Human Ganglion (Homo sapiens, UniProt P30926+P32297); test: Function at human ganglion subtype, single point 100 μM; assay type: cell-based
Human Ganglion, sequence (P32297 32-505): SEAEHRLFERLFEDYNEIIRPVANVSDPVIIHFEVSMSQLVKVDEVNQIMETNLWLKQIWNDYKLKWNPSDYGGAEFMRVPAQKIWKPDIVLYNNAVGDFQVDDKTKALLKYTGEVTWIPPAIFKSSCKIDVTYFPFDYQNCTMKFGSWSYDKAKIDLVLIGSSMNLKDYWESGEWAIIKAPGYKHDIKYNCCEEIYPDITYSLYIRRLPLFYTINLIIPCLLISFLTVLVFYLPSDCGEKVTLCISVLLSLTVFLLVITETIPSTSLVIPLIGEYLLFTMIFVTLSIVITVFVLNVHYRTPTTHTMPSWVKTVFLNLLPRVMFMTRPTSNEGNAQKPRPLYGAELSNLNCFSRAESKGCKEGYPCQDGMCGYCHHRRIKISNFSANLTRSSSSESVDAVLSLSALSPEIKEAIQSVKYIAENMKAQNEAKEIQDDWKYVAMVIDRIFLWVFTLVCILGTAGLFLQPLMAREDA
Human Ganglion, sequence (P30926 22-498): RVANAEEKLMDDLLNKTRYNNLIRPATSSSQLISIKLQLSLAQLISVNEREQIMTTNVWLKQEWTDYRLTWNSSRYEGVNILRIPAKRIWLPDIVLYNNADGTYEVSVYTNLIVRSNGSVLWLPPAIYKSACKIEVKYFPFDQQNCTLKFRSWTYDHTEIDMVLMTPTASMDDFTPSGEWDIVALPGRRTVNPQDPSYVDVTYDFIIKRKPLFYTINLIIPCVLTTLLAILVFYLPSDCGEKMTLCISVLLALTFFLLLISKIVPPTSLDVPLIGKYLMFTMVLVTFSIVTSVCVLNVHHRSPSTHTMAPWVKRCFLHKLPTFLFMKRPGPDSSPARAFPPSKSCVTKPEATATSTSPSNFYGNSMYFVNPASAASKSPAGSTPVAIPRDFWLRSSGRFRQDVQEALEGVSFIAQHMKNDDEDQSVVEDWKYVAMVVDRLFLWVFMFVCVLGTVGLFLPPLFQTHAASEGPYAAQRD
Method: (§1) Binding and function of the compounds to relevant receptor sites was determined in accordance with the techniques described in PCT WO 2008/057938. Inhibition constants (Ki values), reported in nM, were calculated from the IC50 values using the method of Cheng et al., Biochem. Pharmacol. 22: 3099 (1973). […] Thus, the compounds of the present invention are selective modulators of the α4β2 NNR subtype.

Human Muscle = Human Muscle (Homo sapiens, UniProt P02708+P07510+Q07001); test: Function at human muscle subtype, single point 100 μM; assay type: cell-based
Method: as §1

[2] = Single rising dose (SRD) study of Compound C, plasma pharmacokinetics of racemate and enantiomers; assay type: in vivo; details: for t1/2 (mean) / half-life / Cmax / Tmax / AUC(0-inf): plasma; for t1/2 (mean): Table 3; for half-life / Cmax / Tmax / AUC(0-inf): human; for AUC(0-inf): read-out: AUCinf (mean); for share of total exposure (Cmax and AUCinf) compared to the racemate, Compound C: oral administration of Compound C
Method: A single, rising dose (SRD) study was performed with Compound C (the racemate). Plasma samples were analyzed for the content of the two enantiomers, Compound A (substantially pure R), Compound B (substantially pure S). Three dose groups (Compound C) were analyzed, 50, 100, and 400 mg, and four subjects were randomly selected from the 6 subjects tested to receive active treatment in each cohort examined in the SRD study.

A/J mice = test: Depression model, tail suspension (TS); assay type: in vivo; details: 0.1 mg/kg (p-hydroxybenzoate), 10 min test
Method: On the day of the test, A/J mice were brought to acclimate to the testing room for one hour. Eight animals were tested in each run. Following pretreatment with vehicle, desipramine (20 mg/kg) or Compound A, p-hydroxybenzoate (0.1, 0.3, and 1 mg/kg), a piece of transparent (Scotch) tape was attached to the tail of each mouse from about mid-tail with approximately 2 cm of tape past the end of the tail. The mice were then placed in the tail suspension chambers (white polyvinylchloride cubicles measuring 33×33×31.75 cm; Med Associates Inc., St Albans, Vt.). The mice were suspended from the hook of the TS force transducer via the tail tape. The force transducer transmitted the movements of the mouse to a recording device connected to a computer. Immobility time, struggle time, and intensity were automatically recorded for each min during the 10 min test period. Upon completion of the TS test, the mice were returned to their home cage and then to the animal colony. The TS chambers were cleaned between sessions. Data were analyzed by repeated measures and one-way analysis of variance (ANOVA) followed by Fisher PLSD post-hoc comparisons. An effect was considered significant if p<0.05.

rat = test: Anxiety model, elevated plus maze (EPM); assay type: in vivo; details: 0.02, 0.06, and 0.21 mg/kg i.p. 30 minutes before the test, FIG. 1
Excerpt: The method, which detects anxiolytic activity, follows that described by Handley S. L. and Mithani S., Effects of alpha-adrenoceptor agonists and antagonists in a maze-exploration model of fear-motivated behaviour, Naunyn-Schmied. Arch. Pharmacol., 327, 1-5, 1984.
Rodents avoid open spaces (the open arms of an elevated plus-maze). Anxiolytics increase exploratory activity in the open arms. The maze consisted of 4 arms of equal length and width arranged in the form of a plus sign (+). Two opposite arms were enclosed by walls (closed arms). The two other arms had no walls (open arms). The maze was raised above the floor. A rat was placed in the centre of the plus-maze and left to explore for 5 minutes. The number of entries into the open and closed arms and the time spent in the open arms were recorded.
Ten (10) rats were studied per group. The test was performed blind. Compound A was evaluated at 0.02, 0.06, and 0.21 mg/kg, administered i.p. 30 minutes before the test, and compared with a vehicle control group. Clobazam, administered under the same experimental conditions, was used as reference substance. The experiment therefore included […].
Data were analyzed by comparing the treated groups with the control group using unpaired tests.

nicotinic = test: Standard receptor screen at 10 μM: nicotinic; assay type: binding; details: hydrochloride salt
Method: (§2) Both Compound A, (R)-7-(3-pyridinyl)-1,7-diazaspiro[4.4]nonane, and Compound B, (S)-7-(3-pyridinyl)-1,7-diazaspiro[4.4]nonane, each as their hydrochloride salts, were screened, at 10 μM concentration, against a standard set of receptors. […] Thus, the two stereoisomers differentiate from one another in terms of their non-nicotinic receptor binding characteristics. This differentiation is believed to translate into a differentiation between the ability of each of (R)-7-(3-pyridinyl)-1,7-diazaspiro[4.4]nonane and (S)-7-(3-pyridinyl)-1,7-diazaspiro[4.4]nonane to treat various disease states, including, for example, the ability of Compound A to enhance desensitization of α4β2 NNRs.

Human α4β2 = Human α4β2 (Homo sapiens, UniProt P17787+P43681); test: Binding to human α4β2 NNR (Ki); details: read-out: Human α4β2 Ki
Human α4β2, sequence (P43681 29-627 limits assumed): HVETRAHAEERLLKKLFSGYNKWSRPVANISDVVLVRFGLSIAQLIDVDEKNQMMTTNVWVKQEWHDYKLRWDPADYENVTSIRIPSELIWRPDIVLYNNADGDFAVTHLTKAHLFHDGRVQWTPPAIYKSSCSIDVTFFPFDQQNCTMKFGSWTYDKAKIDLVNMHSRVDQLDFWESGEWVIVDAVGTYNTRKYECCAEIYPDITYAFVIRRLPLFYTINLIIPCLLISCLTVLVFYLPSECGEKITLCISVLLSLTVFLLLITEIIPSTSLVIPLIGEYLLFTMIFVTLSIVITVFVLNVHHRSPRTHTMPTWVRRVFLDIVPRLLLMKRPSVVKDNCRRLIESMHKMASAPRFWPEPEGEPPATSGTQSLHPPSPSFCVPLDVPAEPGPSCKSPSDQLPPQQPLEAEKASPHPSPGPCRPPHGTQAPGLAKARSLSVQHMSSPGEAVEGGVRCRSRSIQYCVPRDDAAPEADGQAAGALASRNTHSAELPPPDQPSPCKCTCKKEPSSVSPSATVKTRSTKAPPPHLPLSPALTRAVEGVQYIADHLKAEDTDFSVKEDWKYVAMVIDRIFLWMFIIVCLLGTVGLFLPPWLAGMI
Human α4β2, sequence (P17787 26-502): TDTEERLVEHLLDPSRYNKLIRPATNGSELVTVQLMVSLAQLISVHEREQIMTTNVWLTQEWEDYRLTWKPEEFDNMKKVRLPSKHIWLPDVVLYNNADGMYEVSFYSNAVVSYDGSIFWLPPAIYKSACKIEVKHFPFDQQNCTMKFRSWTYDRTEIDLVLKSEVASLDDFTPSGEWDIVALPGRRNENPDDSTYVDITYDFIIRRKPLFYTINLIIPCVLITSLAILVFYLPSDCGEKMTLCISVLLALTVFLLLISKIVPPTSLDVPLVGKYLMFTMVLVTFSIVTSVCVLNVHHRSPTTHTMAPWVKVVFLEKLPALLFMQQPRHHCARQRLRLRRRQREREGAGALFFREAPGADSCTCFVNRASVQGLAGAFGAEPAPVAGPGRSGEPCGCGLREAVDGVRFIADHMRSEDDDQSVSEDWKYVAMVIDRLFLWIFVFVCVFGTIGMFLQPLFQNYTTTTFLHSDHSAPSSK
Method: as §1

histamine H1 = histamine H1 (Homo sapiens, UniProt P35367); test: Standard receptor screen at 10 μM: histamine H1; assay type: binding; details: hydrochloride salt, read-out: inhibition at histamine H1 receptors
histamine H1, sequence (P35367 whole entry): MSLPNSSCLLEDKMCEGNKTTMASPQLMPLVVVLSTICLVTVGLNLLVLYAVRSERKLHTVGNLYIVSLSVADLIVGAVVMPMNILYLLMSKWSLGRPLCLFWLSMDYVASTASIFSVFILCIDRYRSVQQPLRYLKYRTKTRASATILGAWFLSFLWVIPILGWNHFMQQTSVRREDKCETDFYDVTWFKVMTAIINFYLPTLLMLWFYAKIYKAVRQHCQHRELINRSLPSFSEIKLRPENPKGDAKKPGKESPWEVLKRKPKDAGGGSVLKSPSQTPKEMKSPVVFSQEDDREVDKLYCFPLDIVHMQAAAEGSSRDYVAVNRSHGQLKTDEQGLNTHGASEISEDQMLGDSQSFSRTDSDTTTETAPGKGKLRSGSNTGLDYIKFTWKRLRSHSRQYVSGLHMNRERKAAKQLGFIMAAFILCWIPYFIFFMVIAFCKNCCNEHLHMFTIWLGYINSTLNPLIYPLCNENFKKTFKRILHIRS
Method: as §2

Rat α7 = Rat α7 (Rattus norvegicus, UniProt Q05941); test: Binding to rat α7 NNR (Ki); details: read-out: Rat α7 Ki
Rat α7, sequence (Q05941 23-502): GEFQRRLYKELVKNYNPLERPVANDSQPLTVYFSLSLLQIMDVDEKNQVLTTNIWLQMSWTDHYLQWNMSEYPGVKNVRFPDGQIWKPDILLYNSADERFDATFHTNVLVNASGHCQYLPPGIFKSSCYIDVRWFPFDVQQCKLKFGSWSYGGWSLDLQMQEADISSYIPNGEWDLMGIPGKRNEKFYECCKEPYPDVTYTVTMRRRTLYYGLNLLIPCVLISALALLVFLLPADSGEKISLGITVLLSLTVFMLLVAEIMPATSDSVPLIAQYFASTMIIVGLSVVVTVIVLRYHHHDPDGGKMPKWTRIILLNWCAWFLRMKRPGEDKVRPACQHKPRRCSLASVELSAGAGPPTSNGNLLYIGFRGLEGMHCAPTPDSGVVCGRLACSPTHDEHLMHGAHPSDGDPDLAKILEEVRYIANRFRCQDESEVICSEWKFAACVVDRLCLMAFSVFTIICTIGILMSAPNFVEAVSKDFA
Method: as §1

Rat α4β2 = Rat α4β2 (Rattus norvegicus, UniProt P09483+P12390); test: Binding to rat α4β2 NNR (Ki); details: read-out: Rat α4β2 Ki
Rat α4β2, sequence (P09483 31-630): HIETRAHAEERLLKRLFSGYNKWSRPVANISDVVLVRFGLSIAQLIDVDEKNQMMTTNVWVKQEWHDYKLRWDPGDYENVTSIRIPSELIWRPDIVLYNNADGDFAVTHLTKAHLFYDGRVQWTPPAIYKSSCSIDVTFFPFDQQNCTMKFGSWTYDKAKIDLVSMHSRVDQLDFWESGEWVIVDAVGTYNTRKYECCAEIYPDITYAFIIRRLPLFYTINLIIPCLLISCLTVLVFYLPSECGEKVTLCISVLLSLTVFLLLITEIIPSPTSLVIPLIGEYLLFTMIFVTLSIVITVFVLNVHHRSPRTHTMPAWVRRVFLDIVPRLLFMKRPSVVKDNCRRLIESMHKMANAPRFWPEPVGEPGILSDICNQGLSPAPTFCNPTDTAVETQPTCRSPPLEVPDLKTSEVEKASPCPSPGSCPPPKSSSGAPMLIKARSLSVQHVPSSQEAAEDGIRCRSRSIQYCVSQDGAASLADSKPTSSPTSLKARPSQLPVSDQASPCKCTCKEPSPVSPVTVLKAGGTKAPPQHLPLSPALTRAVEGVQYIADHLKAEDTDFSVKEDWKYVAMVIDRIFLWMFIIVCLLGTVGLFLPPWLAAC
Rat α4β2, sequence (P12390 25-500): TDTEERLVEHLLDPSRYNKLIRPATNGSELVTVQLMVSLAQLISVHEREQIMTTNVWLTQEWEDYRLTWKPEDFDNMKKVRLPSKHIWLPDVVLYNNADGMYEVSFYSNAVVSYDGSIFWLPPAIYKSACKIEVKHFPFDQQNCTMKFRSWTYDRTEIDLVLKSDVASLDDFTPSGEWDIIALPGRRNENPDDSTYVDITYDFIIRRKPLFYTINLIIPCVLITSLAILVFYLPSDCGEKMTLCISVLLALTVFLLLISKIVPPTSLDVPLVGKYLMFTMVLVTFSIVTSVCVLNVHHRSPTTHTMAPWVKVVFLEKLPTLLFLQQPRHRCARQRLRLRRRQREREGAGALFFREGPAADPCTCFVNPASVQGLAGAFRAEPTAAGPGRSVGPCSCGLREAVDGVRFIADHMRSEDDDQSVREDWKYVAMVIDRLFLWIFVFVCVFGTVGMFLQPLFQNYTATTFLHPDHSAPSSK
Method: as §1

human α4β2 NNRs = molecular target: T1, human α4β2 NNRs (Homo sapiens, UniProt P17787+P43681); test: Function at human α4β2 NNRs, SH-EP1/human a4b2 cells, FLIPR calcium; assay type: cell-based
T1 construct: expressed in transfected cells; host or cells: SH-EP1
T1 sequence (P43681 29-627 limits assumed): as the sequence (P43681 29-627 limits assumed) above
T1 sequence (P17787 26-502): as the sequence (P17787 26-502) above
Method: as §1
After the loading period, plates were equilibrated to room temperature and the cells exposed to the test article ([…]) or nicotine or buffer alone on a FLIPR (Molecular Devices). Fluorescence (at 485 nm) was monitored throughout the experiment. The test article change in fluorescence was compared to both a positive control (10 μM nicotine) and a negative control (buffer alone) to determine the percent response relative to that of nicotine.

rats = test: Seizure/convulsion induction after acute dose, rats; assay type: in vivo
Method: For example, preclinically, Compound C induced seizures following acute doses:
Likewise, Compound B induced convulsion in 1/6 male rats following an acute oral dose of 300 mg/kg.
In fact, the effect of Compound A was not statistically different from the vehicle control.

muscarinic M1 = molecular target: T2, muscarinic M1 (Homo sapiens, UniProt P11229); test: Standard receptor screen at 10 μM: muscarinic M1; assay type: binding; details: hydrochloride salt, read-out: inhibition at muscarinic M1 receptors
T2 sequence (P11229 1-460): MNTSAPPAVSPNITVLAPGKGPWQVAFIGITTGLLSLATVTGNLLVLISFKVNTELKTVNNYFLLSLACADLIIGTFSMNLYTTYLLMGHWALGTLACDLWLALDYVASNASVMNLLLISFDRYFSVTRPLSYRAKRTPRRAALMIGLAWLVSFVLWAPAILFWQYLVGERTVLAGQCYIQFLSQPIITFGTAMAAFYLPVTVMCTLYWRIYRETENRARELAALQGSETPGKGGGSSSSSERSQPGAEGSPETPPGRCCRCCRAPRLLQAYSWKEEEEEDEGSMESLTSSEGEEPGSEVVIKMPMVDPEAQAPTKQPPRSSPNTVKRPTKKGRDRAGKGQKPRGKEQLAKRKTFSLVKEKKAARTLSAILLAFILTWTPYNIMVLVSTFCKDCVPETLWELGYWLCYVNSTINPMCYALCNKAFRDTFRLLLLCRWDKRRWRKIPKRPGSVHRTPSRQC
Method: as §2

[3] = tested on: non-selective central muscarinic; test: Standard receptor screen at 10 μM: non-selective central muscarinic; assay type: binding; details: hydrochloride salt
Method: as §2

[4] = tested on: non-selective peripheral muscarinic; test: Standard receptor screen at 10 μM: non-selective peripheral muscarinic; assay type: binding; details: hydrochloride salt
Method: as §2

non-elective sigma = test: Standard receptor screen at 10 μM: sigma; assay type: binding; details: hydrochloride salt
Method: as §2

histamine H3 = histamine H3 (Homo sapiens, UniProt Q9Y5N1); test: Standard receptor screen at 10 μM: histamine H3; assay type: binding; details: hydrochloride salt, read-out: inhibition at histamine H3 receptors
histamine H3, sequence (Q9Y5N1 whole entry): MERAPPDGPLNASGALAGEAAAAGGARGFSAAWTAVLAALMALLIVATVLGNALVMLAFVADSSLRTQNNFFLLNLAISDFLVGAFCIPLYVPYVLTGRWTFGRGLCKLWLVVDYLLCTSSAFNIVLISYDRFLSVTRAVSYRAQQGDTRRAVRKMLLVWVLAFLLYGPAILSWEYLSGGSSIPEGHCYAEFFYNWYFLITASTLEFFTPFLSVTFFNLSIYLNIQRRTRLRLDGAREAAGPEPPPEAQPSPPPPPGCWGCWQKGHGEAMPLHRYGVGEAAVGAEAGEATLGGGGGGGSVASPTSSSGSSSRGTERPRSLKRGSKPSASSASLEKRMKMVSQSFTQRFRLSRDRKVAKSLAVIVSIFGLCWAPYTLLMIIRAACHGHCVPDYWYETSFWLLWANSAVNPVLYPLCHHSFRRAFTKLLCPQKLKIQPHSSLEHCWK
Method: as §2

[5] = po, 50 mg Compound C (n = 4), read-out: Mean (SD) Terminal Elimination Half-life (converted)
[6] = po, 100 mg Compound C (n = 4), read-out: Mean (SD) Terminal Elimination Half-life (converted)
[7] = po, 400 mg Compound C (n = 4), read-out: Mean (SD) Terminal Elimination Half-life (converted)
[8] = SH-EP1/human a4b2 cells, FLIPR calcium, relative to 10 μM nicotine, read-out: Human α4β2 Emax (% of nic resp)

Structure (SMILES)	Efficacy in multiple validated animal models of depression and anxiety [1]	Human Ganglion SP (100 μM) (Human Ganglion)	Human Muscle SP (100 μM) (Human Muscle)	t1/2 (mean) ([2]; 50 mg Compound C (n = 4)) [h]	t1/2 (mean) ([2]; 100 mg Compound C (n = 4)) [h]	t1/2 (mean) ([2]; 400 mg Compound C (n = 4)) [h]	Cmax ([2]; po, 50 mg Compound C (n = 4)) [ng/mL]	Tmax ([2]; po, 50 mg Compound C (n = 4)) [h]	AUC(0-inf) ([2]; po, 50 mg Compound C (n = 4)) [ng·h/mL]	half-life [2, 5] [h]	Cmax ([2]; po, 100 mg Compound C (n = 4)) [ng/mL]	Tmax ([2]; po, 100 mg Compound C (n = 4)) [h]	AUC(0-inf) ([2]; po, 100 mg Compound C (n = 4)) [ng·h/mL]	half-life [2, 6] [h]	Cmax ([2]; po, 400 mg Compound C (n = 4)) [ng/mL]	Tmax ([2]; po, 400 mg Compound C (n = 4)) [h]	AUC(0-inf) ([2]; po, 400 mg Compound C (n = 4)) [ng·h/mL]	half-life [2, 7] [h]	share of total exposure (Cmax and AUCinf) compared to the racemate, Compound C [2]	inhibition at nicotinic receptors (nicotinic) [% inhibition]	other results
c1cncc(N2CC[C@]3(CCCN3)C2)c1 [Compound A, (R)-7-(3-pyridinyl)-1,7-diazaspiro[4.4]nonane]	demonstrated efficacy	3	6	27.5	23.7	22.4	10.3	4.38	256	27.5	22.7	3.25	451	23.7	163	2	2420	22.4	approximately half	99	half-life ([2]; oral, after Compound C 50, 100, 400 mg, read-out: terminal elimination half-life longer than that of Compound B (converted)): ~6 h; struggle intensity compared to saline (A/J mice): increased struggle intensity; total time immobile compared to saline (A/J mice): decreased total time immobile; Activity in the EPM (rat): anxiolytic-like activity; pKi (Human α4β2): 7.40; inhibition at 10 µM (histamine H1): 66%; pKi (Rat α7): 5.27; pKi (Rat α4β2): 7.13; Emax (human α4β2 NNRs; [8]): 9%; Emax (human α4β2 NNRs; SH-EP1, read-out: Emax at human α4β2 NNRs): 9%; pEC50 (human α4β2 NNRs; read-out: EC50 at human α4β2 NNRs): 4.08; effect on seizure induction (rats; under the same conditions (as Compound B: acute oral dose of 300 mg/kg, male rats)): no effect on seizure induction
c1cncc(N2CC[C@@]3(CCCN3)C2)c1 [Compound B, (S)-7-(3-pyridinyl)-1,7-diazaspiro[4.4]nonane]	failed to demonstrate activity	18	<1	21.0	17.8	16.6	12.1	3.13	237	21	24.6	2.75	364	17.8	158	2	2130	16.6	approximately half	99	inhibition at 10 µM (muscarinic M1): 53%; inhibition at non-selective central muscarinic receptors [3]: 84 % inhibition; pKi (Human α4β2): 7.52; pKi (Rat α7): < 5.00; inhibition at non-selective peripheral muscarinic receptors [4]: 84 % inhibition; pKi (Rat α4β2): 7.09; pEC50 (human α4β2 NNRs; SH-EP1/human a4b2 cells, FLIPR calcium, read-out: Human α4β2 EC50): 5.41; Emax (human α4β2 NNRs; [8]): 87%; inhibition at non-elective sigma receptors (non-elective sigma): 56 % inhibition; induced convulsion (animals affected) (rats; male rats, acute oral dose of 300 mg/kg): 1/6; inhibition at 10 µM (histamine H3): 58%
